Reference: PubChem BioAssay AID192 (DTP/NCI, 2004)
“And” between values parts separate entries of the source, which are not always exact repeats. Identical values can stand only once. Inconclusive results and toxic doses are left out. The calls were made as follows: active = survival T/C of 150% or more; inactive = T/C below 125% in these data. Peptide text beside a SMILES is read from it.

Tested on: BDF1 mice, B16 melanoma ip, median survival T/C
Assay: NCI In Vivo Anticancer Drug Screen. Data for tumor model B16 Melanoma (intraperitoneal) in B6D2F1 (BDF1) mice
Settings: endpoint: median survival time, higher = longer survival
Description: The antitumor activity of compounds was measured in mice bearing transplantable tumors. Survival or tumor size were measured and the results are expressed as the measurement made in the treated group (T) divided by the measurement made in the vehicle treated control group (C). The tumor model used in this assay is B16 Melanoma (intraperitoneal) in B6D2F1 (BDF1) mice

[1] = dose: 100.0 mg/kg/injection, schedule: Q01DX009 (ip), vehicle: saline
[2] = dose: 200.0 mg/kg/injection, schedule: Q01DX009 (ip), vehicle: saline
[3] = dose: 400.0 mg/kg/injection, schedule: Q01DX009 (ip), vehicle: saline
[4] = dose: 50.0 mg/kg/injection, schedule: Q01DX009 (ip), vehicle: saline
[5] = dose: 25.0 mg/kg/injection, schedule: Q01DX009 (ip), vehicle: saline with Tween-80
[6] = dose: 50.0 mg/kg/injection, schedule: Q01DX009 (ip), vehicle: saline with Tween-80
[7] = dose: 100.0 mg/kg/injection, schedule: Q01DX009 (ip), vehicle: saline with Tween-80
[8] = dose: 400.0 mg/kg/injection, schedule: Q01DX009 (ip), vehicle: saline with Tween-80
[9] = dose: 200.0 mg/kg/injection, schedule: Q01DX009 (ip), vehicle: Klucel (hydroxypropylcellulose) (HPC)
[10] = dose: 100.0 mg/kg/injection, schedule: Q04DX003 (ip), vehicle: Klucel (hydroxypropylcellulose) (HPC)
[11] = dose: 200.0 mg/kg/injection, schedule: Q04DX003 (ip), vehicle: Klucel (hydroxypropylcellulose) (HPC)
[12] = dose: 25.0 mg/kg/injection, schedule: Q01DX009 (ip), vehicle: Klucel (hydroxypropylcellulose) (HPC)
[13] = dose: 50.0 mg/kg/injection, schedule: Q01DX009 (ip), vehicle: Klucel (hydroxypropylcellulose) (HPC)
[14] = dose: 100.0 mg/kg/injection, schedule: Q01DX009 (ip), vehicle: Klucel (hydroxypropylcellulose) (HPC)
[15] = dose: 6.25 mg/kg/injection, schedule: Q01DX009 (ip), vehicle: saline with Tween-80
[16] = dose: 12.5 mg/kg/injection, schedule: Q01DX009 (ip), vehicle: saline with Tween-80
[17] = dose: 200.0 mg/kg/injection, schedule: Q01DX009 (ip), vehicle: saline with Tween-80

Measured: T/C

COCCN1CCC(C)(CO)C1 (centres undefined)
inactive: [1] 106 % of control | [2] 100 % of control | [3] 93 % of control

O=[N+]([O-])O.[Ga]
inactive: [4] 102 % of control | [1] 92 % of control

C[N+](C)(C)C.N=C=O.N=C=O.N=C=O.N=C=O.[Co+2]
inactive: dose: 12.5 mg/kg/injection, schedule: Q04DX003 (ip), vehicle: saline with Tween-80 97 % of control | dose: 25.0 mg/kg/injection, schedule: Q04DX003 (ip), vehicle: saline with Tween-80 90 % of control | dose: 50.0 mg/kg/injection, schedule: Q04DX003 (ip), vehicle: saline with Tween-80 92 % of control

CC(C)CC(Br)C(=O)NC(CC(C)C)C(=O)O (centres undefined)
inactive: [5] 95 % of control | [6] 100 % of control | [7] 95 % of control and 100 % of control | [8] 108 % of control

CCC[CH2][Sn]([Cl])([CH2]CCC)[S]C(=S)NCCNC(=S)[S][Sn]([Cl])([CH2]CCC)[CH2]CCC
inactive: dose: 3.12 mg/kg/injection, schedule: Q01DX009 (ip), vehicle: Klucel (hydroxypropylcellulose) (HPC) 94 % of control | dose: 6.25 mg/kg/injection, schedule: Q01DX009 (ip), vehicle: Klucel (hydroxypropylcellulose) (HPC) 96 % of control | dose: 12.5 mg/kg/injection, schedule: Q01DX009 (ip), vehicle: Klucel (hydroxypropylcellulose) (HPC) 101 % of control

COc1cc2ccc(CC(=O)NCc3ccccc3)cc2cc1OC
inactive: [7] 122 % of control | dose: 135.0 mg/kg/injection, schedule: Q01DX009 (ip), vehicle: Klucel (hydroxypropylcellulose) (HPC) 123 % of control | [9] 110 % of control

CCOC(=O)Nc1ccc(OC)cc1
inactive: [10] 95 % of control | [11] 100 % of control | dose: 400.0 mg/kg/injection, schedule: Q04DX003 (ip), vehicle: Klucel (hydroxypropylcellulose) (HPC) 97 % of control

O=NN(CCCl)C(=O)Nc1c[nH]c2ccccc12
active: [12] 153 % of control and 158 % of control | [13] 157 % of control and 158 % of control and 165 % of control | [14] 162 % of control and 174 % of control | [9] 174 % of control

O=S(=O)(O)C1CCC[N-]C1.O=S(=O)(O)C1CCC[N-]C1.[Cl][Pt+2]([Cl])([Cl])[Cl] (centres undefined)
inactive: [15] 110 % of control | [16] 95 % of control | [5] 103 % of control | [6] 106 % of control | [7] 105 % of control

CNC(=S)N/N=C/c1ccc([N+](=O)[O-])s1
inactive: [6] 90 % of control | [7] 92 % of control | [17] 92 % of control

N#CSc1ccc(NN)cc1
inactive: dose: 6.25 mg/kg/injection, schedule: Q01DX009 (ip), vehicle: other 96 % of control | dose: 12.5 mg/kg/injection, schedule: Q01DX009 (ip), vehicle: other 114 % of control | dose: 25.0 mg/kg/injection, schedule: Q01DX009 (ip), vehicle: other 99 % of control

CC1=Nc2ccc([N+](=O)[O-])cc2N=C(C)C1
inactive: dose: 37.5 mg/kg/injection, schedule: Q01DX009 (ip), vehicle: saline 97 % of control | dose: 75.0 mg/kg/injection, schedule: Q01DX009 (ip), vehicle: saline 101 % of control | dose: 150.0 mg/kg/injection, schedule: Q01DX009 (ip), vehicle: saline 89 % of control

CCCCCCC(=O)CC(SCC)c1ccccc1Cl (centres undefined)
inactive: [5] 107 % of control | [6] 107 % of control | [7] 107 % of control | [17] 100 % of control | [8] 91 % of control

NC(CCC(=O)NCC(=O)O)C(=O)O (centres undefined)
inactive: [4] 92 % of control | [1] 91 % of control | [2] 101 % of control | [3] 88 % of control

Cc1cc(C)[c]([Hg][Cl])c(C)c1
inactive: dose: 1.5 mg/kg/injection, schedule: Q01DX009 (ip), vehicle: saline with Tween-80 110 % of control | dose: 3.0 mg/kg/injection, schedule: Q01DX009 (ip), vehicle: saline with Tween-80 98 % of control | dose: 6.0 mg/kg/injection, schedule: Q01DX009 (ip), vehicle: saline with Tween-80 99 % of control | [15] 88 % of control

CCc1ccc(C(C)(C)C)cc1
inactive: dose: 25.0 mg/kg/injection, schedule: Q04DX003 (ip), vehicle: Klucel (hydroxypropylcellulose) (HPC) 103 % of control | dose: 50.0 mg/kg/injection, schedule: Q04DX003 (ip), vehicle: Klucel (hydroxypropylcellulose) (HPC) 93 % of control | [10] 101 % of control | [11] 100 % of control

Oc1ccccc1C=NCC[N-]CCN=Cc1ccccc1O.[Cu+]
inactive: dose: 0.39 mg/kg/injection, schedule: Q01DX009 (ip), vehicle: Klucel (hydroxypropylcellulose) (HPC) 97 % of control | dose: 0.78 mg/kg/injection, schedule: Q01DX009 (ip), vehicle: Klucel (hydroxypropylcellulose) (HPC) 96 % of control | dose: 1.56 mg/kg/injection, schedule: Q01DX009 (ip), vehicle: Klucel (hydroxypropylcellulose) (HPC) 90 % of control

Clc1ccc(NC2=NCCCS2)c2ccccc12
inactive: [12] 105 % of control | [13] 92 % of control | [14] 95 % of control

CCCC1OC(=O)C(C)O1 (centres undefined)
inactive: [13] 92 % of control | [14] 89 % of control

CCCCNC(=O)Nc1ccc(C(=O)OCCCC)cc1
inactive: [6] 96 % of control | [7] 95 % of control | [17] 93 % of control

CC1CN1C(=O)NCCCCCCNC(=O)N1CC1C (centres undefined)
active: dose: 1.25 mg/kg/injection, schedule: Q01DX009 (ip), vehicle: Klucel (hydroxypropylcellulose) (HPC) 151 % of control | dose: 1.25 mg/kg/injection, schedule: Q01DX009 (ip), vehicle: saline 152 % of control | dose: 2.5 mg/kg/injection, schedule: Q01DX009 (ip), vehicle: saline 180 % of control | dose: 5.0 mg/kg/injection, schedule: Q01DX009 (ip), vehicle: Klucel (hydroxypropylcellulose) (HPC) 158 % of control | dose: 5.0 mg/kg/injection, schedule: Q01DX009 (ip), vehicle: saline 202 % of control

Nc1nc2nc[nH]c2c(=O)[nH]1
inactive: dose: 25.0 mg/kg/injection, schedule: Q01DX009 (ip), vehicle: suspension in saline 95 % of control | dose: 50.0 mg/kg/injection, schedule: Q01DX009 (ip), vehicle: suspension in saline 97 % of control | dose: 100.0 mg/kg/injection, schedule: Q01DX009 (ip), vehicle: suspension in saline 88 % of control | dose: 200.0 mg/kg/injection, schedule: Q01DX009 (ip), vehicle: suspension in saline 86 % of control

CC(C)C(NC(=O)C(NC(=O)C(CCCN=C(N)N)NC(=O)C(N)CCCCN)C(C)C)C(N)=O (centres undefined) (H-KRVV-NH2; configuration not given here)
inactive: dose: 25.0 mg/kg/injection, schedule: Q01DX009 (ip), vehicle: water 97 % of control | dose: 50.0 mg/kg/injection, schedule: Q01DX009 (ip), vehicle: water 96 % of control | dose: 100.0 mg/kg/injection, schedule: Q01DX009 (ip), vehicle: water 96 % of control | dose: 200.0 mg/kg/injection, schedule: Q01DX009 (ip), vehicle: water 99 % of control

O=C(CNC(=O)Nc1ccc(C2=NCCN2)cc1)Nc1ccc(C2=NCCN2)cc1
inactive: [15] 97 % of control | [16] 100 % of control | [5] 97 % of control

CC1OC(OC2CC(O)(C(=O)CO)Cc3c(O)c4c(c(O)c32)C(=O)c2ccccc2C4=O)CC(N)C1O (centres undefined)
active: dose: 216.0 micrograms/kg/injection, schedule: Q04DX003 (ip), vehicle: water 182 % of control | dose: 600.0 micrograms/kg/injection, schedule: Q04DX003 (ip), vehicle: water 150 % of control and 283 % of control | dose: 1000.0 micrograms/kg/injection, schedule: Q04DX003 (ip), vehicle: water 154 % of control and 211 % of control
inactive: dose: 0.1 mg/kg/injection, schedule: Q01DX001 (ip), vehicle: water 102 % of control | dose: 130.0 micrograms/kg/injection, schedule: Q01DX004 (ip), vehicle: other 121 % of control | dose: 600.0 micrograms/kg/injection, schedule: Q01DX004 (ip), vehicle: other 114 % of control

COC(=O)C1CCC[N+](C)(C)C1 (centres undefined)
inactive: dose: 12.5 mg/kg/injection, schedule: Q01DX009 (ip), vehicle: saline 100 % of control | dose: 25.0 mg/kg/injection, schedule: Q01DX009 (ip), vehicle: saline 100 % of control | [4] 91 % of control

COc1cc(-c2ccc(Nc3ccccc3C(=O)O)c(OC)c2)ccc1N
inactive: [5] 105 % of control | [6] 104 % of control
